Measured values taken from patent publication US7799824B2, “Quaternary salt CCR2 antagonists” (OraPharma, Inc., priority 2004, dated 2010).
pIC50: −log10 of the molar value.

Molecular target: T1, CCR2 (Homo sapiens, UniProt P41597)
T1 sequence (P41597 1-360 isoform P41597-2): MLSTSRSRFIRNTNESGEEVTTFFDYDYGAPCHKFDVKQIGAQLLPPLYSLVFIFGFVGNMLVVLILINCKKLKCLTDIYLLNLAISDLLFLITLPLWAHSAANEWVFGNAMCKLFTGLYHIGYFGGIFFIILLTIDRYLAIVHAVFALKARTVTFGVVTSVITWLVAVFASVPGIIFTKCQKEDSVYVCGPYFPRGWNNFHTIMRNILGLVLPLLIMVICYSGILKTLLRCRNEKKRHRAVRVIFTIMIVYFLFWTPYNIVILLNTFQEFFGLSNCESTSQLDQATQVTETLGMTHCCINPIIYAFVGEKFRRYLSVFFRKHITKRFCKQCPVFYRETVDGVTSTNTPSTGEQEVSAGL
Test: MCP-1 Receptor Binding Assay in THP-1 Cells
Conditions: MCP-1 binding to CCR2; test concentration of 25 μM, unless indicated otherwise; read-out: % Inhibition Ligand Binding
Procedure: THP-1 cells were obtained from American Type Culture Collection (Manassas, Va., USA). […] The cell density was maintained between 0.5×10^6 cells/mL.
Cells were then harvested onto a filter plate, dried, and 20 μL of Microscint 20 was added to each well. Plates were counted in a TopCount NXT, Microplate Scintillation & Luminescence Counter (Perkin-Elmer Life Sciences, Inc. Boston, Mass.). Blank values (buffer only) were subtracted from all values and drug treated values were compared to vehicle treated values. 1 μM cold MCP-1 was used for nonspecific binding.

Row | inhibition at 25 µM | SMILES
1 | 7% | C[N+](C)(Cc1ccc(CNC(=O)C2=Cc3ccccc3CCC2)cc1)C1CCOCC1 [Cpd 148, (4-{[(8,9-dihydro-7H-benzocycloheptene-6-carbonyl)-amino]-methyl}-benzyl)-dimethyl-(tetrahydro-pyran-4-yl)-ammonium iodide]
2 | 15% | Cc1c(Cl)cccc1C(=O)Nc1ccc(C[N+](C)(C)C2CCOCC2)cc1 [Cpd 25, [4-(3-chloro-2-methyl-benzoylamino)-benzyl]-dimethyl-(tetrahydro-pyran-4-yl)-ammonium iodide]
3 | 34% | C[N+](C)(Cc1cccc(NC(=O)c2cccc(Br)c2)c1)C1CCOCC1 [Cpd 8, [3-(3-bromo-benzoylamino)-benzyl]-dimethyl-(tetrahydro-pyran-4-yl)-ammonium iodide]
4 | 53% | C[N+]1(Cc2ccc(CNC(=O)C=Cc3ccc(Cl)c(Cl)c3)cc2)CCOCC1 [Cpd 58, 4-(4-{[3-(3,4-dichloro-phenyl)-acryloylamino]-methyl}-benzyl)-4-methyl-morpholin-4-ium iodide]
5 | 29% | C[N+](C)(Cc1ccc(NC(=O)c2cccc3ccccc23)cc1)C1CCOCC1 [Cpd 89, dimethyl-{4-[(naphthalene-1-carbonyl)-amino]-benzyl}-(tetrahydro-pyran-4-yl)-ammonium iodide]
6 | 53% | C[N+](C)(Cc1ccc(NC(=O)c2cccc(Cl)c2Cl)cc1)C1CCCCC1 [Cpd 77, cyclohexyl-[4-(2,3-dichloro-benzoylamino)-benzyl]-dimethyl-ammonium iodide]

Same assay, conditions: THP-1 cells, 0.5 nM 125I labeled MCP-1, 2 hours at 30° C.; read-out: Mean Ligand Binding IC50 (inhibition of MCP-1 binding to CCR2)

Row | SMILES | pIC50
7 | C[N+]1(Cc2ccc(NC(=O)C3=Cc4c(ccc5ccccc45)OC3)cc2)CCCC1 [Cpd 136, 1-{4-[(3H-benzo[f]chromene-2-carbonyl)-amino]-benzyl}-1-methyl-pyrrolidinium iodide] | 5.34
8 | C[N+](C)(Cc1ccc(CNC(=O)C=Cc2cccc(Br)c2)cc1)C1CCOCC1 [Cpd 5, (4-{[3-(3-bromo-phenyl)-acryloylamino]-methyl}-benzyl)-dimethyl-(tetrahydro-pyran-4-yl)-ammonium iodide] | 5.08
9 | C[N+]1(Cc2cccc(NC(=O)c3cccc(C(F)(F)F)c3)c2)CCCCC1 [Cpd 56, 1-methyl-1-[3-(3-trifluoromethyl-benzoylamino)-benzyl]-piperidinium iodide] | 4.93
10 | C[N+](C)(Cc1cccc(NC(=O)C=Cc2cccc(Br)c2)c1)C1CCOCC1 [Cpd 38, {3-[3-(3-bromo-phenyl)-acryloylamino]-benzyl}-dimethyl-(tetrahydro-pyran-4-yl)-ammonium iodide] | 5.30
11 | C[N+]1(Cc2ccc(NC(=O)C=Cc3cccc(C(F)(F)F)c3)cc2)CCCCC1 [Cpd 57, 1-methyl-1-{4-[3-(3-trifluoromethyl-phenyl)-acryloylamino]-benzyl}-piperidinium iodide] | 4.88
12 | C[N+](C)(Cc1ccc(NC(=O)C2=Cc3cc(Cl)ccc3OC2)cc1)C[C@@H]1CCCO1 [Cpd 109, (2S)-{4-[(6-chloro-2H-chromene-3-carbonyl)-amino]-benzyl}-dimethyl-(tetrahydro-furan-2-ylmethyl)-ammonium iodide] | 5.28
13 | C[N+]1(Cc2ccc(NC(=O)c3ccc(Cl)c(Cl)c3)cc2)CCCCC1 [Cpd 50, 1-[4-(3,4-dichloro-benzoylamino)-benzyl]-1-methyl-piperidinium iodide] | 5.59
14 | C[N+]1(Cc2ccc(NC(=O)C=Cc3cccc(Br)c3)cc2)CCOCC1 [Cpd 61, 4-{4-[3-(3-bromo-phenyl)-acryloylamino]-benzyl}-4-methyl-morpholin-4-ium iodide] | 5.57
15 | CC[N+](C)(Cc1ccc(NC(=O)c2ccc3ccccc3c2)cc1)C1CCOCC1 (centres unmarked) [Cpd 91, ethyl-methyl-{4-[(naphthalene-2-carbonyl)-amino]-benzyl}-(tetrahydro-pyran-4-yl)-ammonium iodide] | 5.39
16 | C[N+]1(Cc2ccc(NC(=O)C=Cc3cccc(Br)c3)cc2)CCCCC1 [Cpd 55, 1-{4-[3-(3-bromo-phenyl)-acryloylamino]-benzyl}-1-methyl-piperidinium iodide] | 5.27
17 | C[N+](C)(Cc1ccc(NC(=O)c2cccc(C(F)(F)F)c2)cc1)C1CCCCC1 [Cpd 74, cyclohexyl-dimethyl-[4-(3-trifluoromethyl-benzoylamino)-benzyl]-ammonium iodide] | 5.82
18 | C[N+](C)(Cc1ccc(NC(=O)C2=Cc3cc(Cl)ccc3OC2)cc1)C[C@H]1CCCO1 [Cpd 108, (2R)-{4-[(6-chloro-2H-chromene-3-carbonyl)-amino]-benzyl}-dimethyl-(tetrahydro-furan-2-ylmethyl)-ammonium iodide] | 5.51
19 | COc1ccc2c(c1)C=C(C(=O)Nc1ccc(C[N+](C)(C)C3CCOCC3)cc1)CO2 [Cpd 104, {4-[(6-methoxy-2H-chromene-3-carbonyl)-amino]-benzyl}-dimethyl-(tetrahydro-pyran-4-yl)-ammonium iodide] | 5.72

Results, then the compound that gave them:

Row | pIC50 | SMILES
20 | 6.51 | COc1ccc(C(=O)Nc2ccc(C[N+](C)(C)C3CCCCC3)cc2)cc1Cl [Cpd 79, [4-(3-chloro-4-methoxy-benzoylamino)-benzyl]-cyclohexyl-dimethyl-ammonium iodide]
21 | 6.21 | Cn1c(C(=O)Nc2ccc(C[N+](C)(C)C3CCCCC3)cc2)cc2ccccc21 [Cpd 163, cyclohexyl-dimethyl-{4-[(1-methyl-1H-indole-2-carbonyl)-amino]-benzyl}-ammonium iodide]
22 | 7.10 | Cc1ccc2c(c1)OCC(C(=O)Nc1ccc(C[N+](C)(C)C3CCCCC3)cc1)=C2 [Cpd 127, cyclohexyl-dimethyl-{4-[(7-methyl-2H-chromene-3-carbonyl)-amino]-benzyl}-ammonium iodide]
23 | 5.92 | C[N+](C)(Cc1ccc(NC(=O)C2=Cc3ccccc3CCC2)cc1)C1CCOCC1 [Cpd 147, {4-[(8,9-dihydro-7H-benzocycloheptene-6-carbonyl)-amino]-benzyl}-dimethyl-(tetrahydro-pyran-4-yl)-ammonium iodide]
24 | 6.05 | C[N+](C)(Cc1ccc(NC(=O)c2ccc3ccc(Br)cc3c2)cc1)C1CCOCC1 [Cpd 93, {4-[(7-bromo-naphthalene-2-carbonyl)-amino]-benzyl}-dimethyl-(tetrahydro-pyran-4-yl)-ammonium iodide]
25 | 6.28 | Cc1cccc2c1OCC(C(=O)Nc1ccc(C[N+](C)(C)C3CCCCC3)cc1)=C2 [Cpd 113, cyclohexyl-dimethyl-{4-[(8-methyl-2H-chromene-3-carbonyl)-amino]-benzyl}-ammonium iodide]
26 | 6.35 | C[N+](C)(Cc1ccc(NC(=O)C2=Cc3cc(Br)ccc3OC2)cc1)C1CCCCC1 [Cpd 97, {4-[(6-bromo-2H-chromene-3-carbonyl)-amino]-benzyl}-cyclohexyl-dimethyl-ammonium iodide]
27 | 6.31 | C[N+](C)(Cc1ccc(NC(=O)c2cc3cc(Cl)ccc3o2)cc1)C1CCOCC1 [Cpd 155, {4-[(5-chloro-benzofuran-2-carbonyl)-amino]-benzyl}-dimethyl-(tetrahydro-pyran-4-yl)-ammonium iodide]
28 | 6.49 | Cc1ccc2c(c1)C=C(C(=O)Nc1ccc(C[N+](C)(C)C3CCCCC3)cc1)CO2 [Cpd 105, cyclohexyl-dimethyl-{4-[(6-methyl-2H-chromene-3-carbonyl)-amino]-benzyl}-ammonium iodide]
29 | 6.36 | C[N+](C)(Cc1ccc(NC(=O)c2cccc(Br)c2)cc1)C1CCCCC1 [Cpd 73, [4-(3-bromo-benzoylamino)-benzyl]-cyclohexyl-dimethyl-ammonium iodide]
30 | 6.48 | C[N+](C)(Cc1ccc(NC(=O)C2=Cc3cc(Br)ccc3CCC2)cc1)C1CCCCC1 [Cpd 144, {4-[(3-bromo-8,9-dihydro-7H-benzocycloheptene-6-carbonyl)-amino]-benzyl}-cyclohexyl-dimethyl-ammonium iodide]
31 | 6.24 | C[N+](C)(Cc1ccc(NC(=O)C=Cc2cccc(Br)c2)cc1)C1CCCCC1 [Cpd 72, {4-[3-(3-bromo-phenyl)-acryloylamino]-benzyl}-cyclohexyl-dimethyl-ammonium iodide]
32 | 6.92 | Cc1cc(Cl)cc2c1OCC(C(=O)Nc1ccc(C[N+](C)(C)C3CC4CCC3C4)cc1)=C2 (centres unmarked) [Cpd 117, bicyclo[2.2.1]hept-2-yl-{4-[(6-chloro-8-methyl-2H-chromene-3-carbonyl)-amino]-benzyl}-dimethyl-ammonium iodide]
33 | 6.33 | C[N+](C)(Cc1ccc(NC(=O)C2=Cc3cccc(C(F)(F)F)c3OC2)cc1)C1CCCCC1 [Cpd 134, cyclohexyl-dimethyl-{4-[(8-trifluoromethyl-2H-chromene-3-carbonyl)-amino]-benzyl}-ammonium iodide]
34 | 6.82 | CC(C)(C)c1ccc2c(c1)C=C(C(=O)Nc1ccc(C[N+](C)(C)C3CCCCC3)cc1)CO2 [Cpd 129, {4-[(6-tert-butyl-2H-chromene-3-carbonyl)-amino]-benzyl}-cyclohexyl-dimethyl-ammonium iodide]
35 | 6.25 | C[N+](C)(Cc1ccc(NC(=O)C2=Cc3cc(Cl)c(Cl)cc3OCC2)cc1)C1CCSC1 (centres unmarked) [Cpd 171, {4-[(7,8-dichloro-2,3-dihydro-benzo[b]oxepine-4-carbonyl)-amino]-benzyl}-dimethyl-(tetrahydro-thiophen-3-yl)-ammonium iodide]
